Reference: patent US3937801A, “Reducing the incidence of gastrointestinal side effects during the treatment of inflammatory conditions with antiinflammatory drugs” (priority 1973, dated 1976)
Several values for one entry are separate records, joined by “and”; a condition that tells them apart may be missing. Equal values may be shown once. Read-outs that look alike come from different tables or passages of the source.

Columns and labels:
[1] = tested on: indomethacin-induced ulcers; assay: indomethacin-induced ulcer formation in rats (procedure of Lee et al.); format: in vivo, rat; conditions: for ED50: po; for Relative Potency ± S.E.M.: relative to 2-(3-hydroxy-3-methyloctyl)-5-oxocyclopentaneheptanoic acid, procedure of Example 1
Excerpt: The gastrointestinal side effect inhibiting property of the compositions of the present invention are demonstrable in standard pharmacological tests. For example, in procedures similar to the in vivo test described by Y. H. Lee et al., cited above, for evaluating the effects of a test compound on indomethacin-induced ulcers in the rat, the compounds of formula 1 are shown to be effective, see Examples 1 and 2.
By following the procedure of Lee et al., cited above, for the production of the indomethacin-induced ulcer in rats, the property of the compounds of formula 1 to inhibit such ulcers is readily demonstrable. More specifically: male albino rats (170 - 190 g; Sprague-Dawley strain, Canadian Breeding Laboratories), caged individually, were fasted 24 hr with free access to water until the start of the experiment. Indomethacin was given intraperitoneally. The animals were killed 5 hr later and the ulcer formation in the glandular portion of the stomach determined. The compound of formula 1 was administered perorally immediately after the indomethacin. The percent inhibition of ulcer formation versus the semilogarithm of the dose (mg/kg) was plotted and the dose at which 50% inhibition occurred (ED50) was read from the graph.
Analysis of variance and regression study were used in the evaluation of the data.
Indomethacin was administered (0.5 ml) as an aqueous suspension (2 drops of polysorbate 80 per 14 ml of H2 O). Polysorbate 80 is a mixture of sorbitol and its anhydrides copolymerized with ethylene oxide. The compounds of formula 1 were given (0.2 ml) in a 0.2% sodium carboxymethyl cellulose aqueous suspension.
The results of such a test for 2-(3-hydroxy-3-methyloctyl)-5-oxocyclopentaneheptanoic acid to inhibit the ulcer formation induced by 20 mg/kg i.p. of indomethacin are given in the following table. For comparative purposes the results obtained for propantheline bromide are also included.
By following the procedure of Example 1 the effects of compounds of formula 1 other than 2-(3-hydroxy-3-methyloctyl)-5-oxocyclopentaneheptanoic acid on indomethacin-induced ulcers are demonstrable. Accordingly, the results obtained with such other compounds of formula 1 are exemplified by the following list in which the relative potency of each compound with respect to 2-(3-hydroxy-3-methyloctyl)-5-oxocyclopentaneheptanoic acid is noted.

[2] = tested on: gastric acid secretion; assay: inhibition of gastric acid secretion in the rat (method of Lippmann); format: in vivo; conditions: unit inferred, read-out: Ed50 for inhibiting gastric acid secretion
Method: A comparison of the ED50 for inhibiting indomethacin-induced ulcers and the ED50 for inhibiting gastric acid secretion for compounds of formula 1 is exemplified in the following list. Both ED50 's are determined in the rat. The ED50 for inhibiting indomethacin-induced ulcers is obtained according to the method of Example 1. The ED50 for inhibiting gastric acid secretion is obtained according to the method of Lippmann, cited above.

[3] = tested on: diarrhea; assay: diarrhea in female mice or rats, peroral; format: in vivo, mouse; conditions: 60 minutes; for diarrheal effect: female mice, 240 mg/kg peroral
[4] = tested on: phenylbutazone-induced ulcers; assay: phenylbutazone-induced ulcer formation in rats; format: in vivo, rat; conditions: for % Inhibition of ulcer formation / Ulcers Formed, Mean ± S.E.M.: phenylbutazone 300 mg/kg p.o., 18 hr
[5] = cited from earlier work; for stability: natural prostaglandins, T.O. Oesterling et al.
[6] = tested on: indomethacin-induced ulcers; conditions: cited from earlier work
[7] = tested on: ulcers; conditions: man; N.O. Rothermich 1966; cited from earlier work
[8] = tested on: diarrheal effect; conditions: larger doses; Misiewicz et al. 1969; cited from earlier work
[9] = tested on: gastric acid secretion; conditions: W. Lippmann 1971; cited from earlier work
[10] = 5 h, rat, method of Example 1 (dose in mg/kg there), unit inferred, read-out: ED50 for inhibiting indomethacin-induced ulcer
[11] = Rattus norvegicus, indomethacin 20 mg/kg i.p., 5 hr, read-out: ED50 (dose at which 50% inhibition of ulcer formation occurred)

Compound: CCCCC(C)(C)C(O)C=C[C@@H]1CCC(=O)[C@H]1C/C=C\CCCC(=O)O (relative stereo) [trans,cis-7-[2-(3-Hydroxy-4,4-dimethyl-1-octenyl)-5-oxocyclopentyl]-5-heptenoic acid]
- ED50 [1, 10]: ~0.02 mg/kg
- Relative Potency ± S.E.M. [1]: 4.8
- ED50 [2]: ~1 mg/kg

Compound: CCCCCC(O)C=C[C@@H]1CCC(=O)[C@H]1CCCCCCC(=O)O (relative stereo) [trans-2-(3-Hydroxy-1-octenyl)-5-oxocyclopentaneheptanoic acid]
- Relative Potency ± S.E.M. [1]: 0.74 ± 0.20

Compound: CCCCCC(C)(O)C=C[C@@H]1CCC(=O)[C@H]1CCCCCCC(=O)O (relative stereo) [trans-2-(3-Hydroxy-3-methyl-1-octenyl)-5-oxocyclopentaneheptanoic acid]
- Relative Potency ± S.E.M. [1]: 1.07 ± 0.33

Compound: CCCCCC(O)CC[C@@H]1CCC(=O)[C@H]1CCCCCCC(=O)O (relative stereo) [trans-2-(3-Hydroxyoctyl)-5-oxocyclopentaneheptanoic acid]
- Relative Potency ± S.E.M. [1]: 0.45 ± 0.12 and 0.64 ± 0.20

Compound: O=C(O)CCCCCC[C@@H]1C(=O)CC[C@H]1C=CC(O)CC1CCCCC1 (relative stereo) [trans-2-(4-Cyclohexyl-3-hydroxy-1-butenyl)-5-oxocyclopentaneheptanoic acid]
- Relative Potency ± S.E.M. [1]: 0.13 ± 0.06

Compound: CCCCCC(O)C=C[C@@H]1CCC(=O)[C@H]1C/C=C\CCCC(=O)O (single isomer, unassigned) [trans,cis-7-[2-(3-Hydroxy-1-octenyl)-5-oxocyclopentyl]-5-hep] [trans,cis-7-[2-(3-Hydroxy-1-octenyl)-5-oxocyclopentyl]-5-heptenoic acid]
- Relative Potency ± S.E.M. [1]: 0.37 ± 0.21 and 0.37 ± 0.14

Compound: CCCCCC(C)(O)CCC1CCC(=O)C1CCCCCCC(=O)O (single isomer, unassigned; (+)) [(+)-2-(3-Hydroxy-3-methyloctyl)-5-oxocyclopentaneheptanoic a] [(+)-2-(3-Hydroxy-3-methyloctyl)-5-oxocyclopentaneheptanoic acid]
- Relative Potency ± S.E.M. [1]: 1.02 ± 0.42
- diarrheal effect [3]: do not cause an appreciable diarrheal effect

Compound: CCCCCC(C)(O)CCC1CCC(=O)C1CCCCCCC(=O)O (single isomer, unassigned; (+)) [(+)-2-(3-Hydroxy-3-methyloctyl)-5-oxocyclopentaneheptanoic acid]
- ED50 [1, 10]: 0.11 mg/kg

Compound: CCCCCC(C)(O)CCC1CCC(=O)C1CCCCCCC(=O)O (single isomer, unassigned; (-)) [(-)-2-(3-Hydroxy-3-methyloctyl)-5-oxocyclopentaneheptanoic a] [(-)-2-(3-Hydroxy-3-methyloctyl)-5-oxocyclopentaneheptanoic acid]
- ED50 for inhibiting indomethacin-induced ulcer ([1]; rat, method of Example 1 (dose in mg/kg there), unit inferred, 300 min): 0.11 mg/kg
- Relative Potency ± S.E.M. [1]: 1.01 ± 0.40
- diarrheal effect [3]: do not cause an appreciable diarrheal effect

Compound: CCCCCC(C)(O)CCC1CCC(=O)C1CCCCCCC(=O)O (stereo not shown) [2-(3-hydroxy-3-methyloctyl)-5-oxocyclopentaneheptanoic acid]
- % Inhibition of ulcer formation ([1]; 0.075 mg/kg p.o., indomethacin 20 mg/kg i.p., 5 hr): 43%
- Ulcers Formed, Mean ± S.E.M. ([1]; 0.075 mg/kg p.o., indomethacin 20 mg/kg i.p., 5 hr, n=9, P < 0.01): 5.9 ± 0.8
- % Inhibition of ulcer formation ([1]; 0.15 mg/kg p.o., indomethacin 20 mg/kg i.p., 5 hr): 56%
- Ulcers Formed, Mean ± S.E.M. ([1]; 0.15 mg/kg p.o., indomethacin 20 mg/kg i.p., 5 hr, n=9, P < 0.01): 4.6 ± 0.6
- % Inhibition of ulcer formation ([1]; 0.30 mg/kg p.o., indomethacin 20 mg/kg i.p., 5 hr): 69%
- Ulcers Formed, Mean ± S.E.M. ([1]; 0.30 mg/kg p.o., indomethacin 20 mg/kg i.p., 5 hr, n=9, P < 0.001): 3.2 ± 0.5
- ED50 [1, 11]: 0.11 mg/kg
- ED50 [1, 10]: 0.11 mg/kg
- ED50 [2]: 4.3 mg/kg
- % Inhibition of ulcer formation ([4]; 7.5 mg/kg p.o.): 24%
- Ulcers Formed, Mean ± S.E.M. ([4]; 7.5 mg/kg p.o., n=10): 4.1 ± 1.0
- % Inhibition of ulcer formation ([4]; 15 mg/kg p.o.): 48%
- Ulcers Formed, Mean ± S.E.M. ([4]; 15 mg/kg p.o., n=9): 2.8 ± 0.6
- % Inhibition of ulcer formation ([4]; 30 mg/kg p.o.): 78%
- Ulcers Formed, Mean ± S.E.M. ([4]; 30 mg/kg p.o., n=9): 1.2 ± 0.5
- ED50 ([4]; Rattus norvegicus, po, over an 18 hr period): ~15 mg/kg
- diarrheal effect [3]: do not cause an appreciable diarrheal effect

Compound: CCCCC[C@H](O)/C=C/[C@@H]1[C@@H](CCCCCCC(=O)O)[C@@H](O)C[C@H]1O [PGF1α]
- stability [5]: relatively unstable

Compound: COc1ccc2c(c1)c(CC(=O)O)c(C)n2C(=O)c1ccc(Cl)cc1 [indomethacin]
- correlation between dosage and occurrence of ulcers ([6]; rat, Lee et al.): found a similar correlation in the rat
- correlation between dosage and occurrence of ulcers [7]: found a correlation between indomethacin dosage and the occurence of ulcers in man

Compound: CC(C)[N+](C)(CCOC(=O)C1c2ccccc2Oc2ccccc21)C(C)C [propantheline bromide, reference compound]
- % Inhibition of ulcer formation ([1]; 1.5 mg/kg p.o., indomethacin 20 mg/kg i.p., 5 hr): 36%
- Ulcers Formed, Mean ± S.E.M. ([1]; 1.5 mg/kg p.o., indomethacin 20 mg/kg i.p., 5 hr, n=9, P < 0.05): 6.9 ± 0.9
- % Inhibition of ulcer formation ([1]; 3.0 mg/kg p.o., indomethacin 20 mg/kg i.p., 5 hr): 52%
- Ulcers Formed, Mean ± S.E.M. ([1]; 3.0 mg/kg p.o., indomethacin 20 mg/kg i.p., 5 hr, n=9, P < 0.01): 5.0 ± 1.0
- % Inhibition of ulcer formation ([1]; 6.0 mg/kg p.o., indomethacin 20 mg/kg i.p., 5 hr): 61%
- Ulcers Formed, Mean ± S.E.M. ([1]; 6.0 mg/kg p.o., indomethacin 20 mg/kg i.p., 5 hr, n=8, P < 0.01): 4.1 ± 0.9
- times less potent than 2-(3-hydroxy-3-methyloctyl)-5-oxocyclopentaneheptanoic acid ([1]; ED50 comparison, p.o., indomethacin-induced ulcers): 27 times
- ED50 [1, 11]: 3 mg/kg
- reduction of the ulcerogenic activity of indomethacin ([6]; rats, Lee et al. 1971, dose relative to usual therapeutic dose): proved to be effective but only when administered at does much higher than their usual therapeutic dose

Compound: CCCCC[C@H](O)/C=C/[C@H]1[C@H](O)CC(=O)[C@@H]1CCCCCCC(=O)O [prostaglandin E1]
- diarrheal effect [8]: diarrheal effect associated with larger doses
- effect on gastric acid secretion [9]: inhibit gastric acid secretion

Compound: CCCCC[C@H](O)/C=C/[C@H]1[C@H](O)CC(=O)[C@@H]1C/C=C\CCCC(=O)O [prostaglandin E2]
- test animals with diarrhea ([3]; 43 mg/kg peroral): 50%
- stability [5]: relatively unstable
- dehydration of the 11-hydroxy group ([5]; under both basic and acidic conditions): participates readily in dehydration reactions under both basic and acidic conditions

Compound: trans-2-(3-Methyl-3-oxooctyl)-5-oxocyclopentaneheptanoic acid
- Relative Potency ± S.E.M. [1]: 0.43 ± 0.14
